Experimental data: publication PMC3298469, “A selective and potent CXCR3 antagonist SCH 546738 attenuates the development of autoimmune diseases and delays graft rejection” (BMC Immunology, 2012)

Experiments:
Assay in all cases: GPCR counterscreen binding assay
Adenosine A1 = Adenosine A1 (Homo sapiens, UniProt P30542)
Procedure: (§1) SCH 546738 was tested at concentrations of 1-10 μM against a panel of 49 GPCR binding assays. Most of the assays were not affected by SCH 546738 (Table 2). […] In addition, SCH 546738 has a favourable pharmacokinetic profile in rodents. […] Therefore, SCH 546738 is suitable for in vivo preclinical studies.

Adenosine A2A = Adenosine A2A (Homo sapiens, UniProt P29274)
Procedure: as §1

Adrenergic α1A = Adrenergic α1A (Homo sapiens, UniProt P35348)
Procedure: as §1

Adrenergic α1B = Adrenergic α1B (Homo sapiens, UniProt P35368)
Adrenergic α1B, sequence (P35368 whole entry): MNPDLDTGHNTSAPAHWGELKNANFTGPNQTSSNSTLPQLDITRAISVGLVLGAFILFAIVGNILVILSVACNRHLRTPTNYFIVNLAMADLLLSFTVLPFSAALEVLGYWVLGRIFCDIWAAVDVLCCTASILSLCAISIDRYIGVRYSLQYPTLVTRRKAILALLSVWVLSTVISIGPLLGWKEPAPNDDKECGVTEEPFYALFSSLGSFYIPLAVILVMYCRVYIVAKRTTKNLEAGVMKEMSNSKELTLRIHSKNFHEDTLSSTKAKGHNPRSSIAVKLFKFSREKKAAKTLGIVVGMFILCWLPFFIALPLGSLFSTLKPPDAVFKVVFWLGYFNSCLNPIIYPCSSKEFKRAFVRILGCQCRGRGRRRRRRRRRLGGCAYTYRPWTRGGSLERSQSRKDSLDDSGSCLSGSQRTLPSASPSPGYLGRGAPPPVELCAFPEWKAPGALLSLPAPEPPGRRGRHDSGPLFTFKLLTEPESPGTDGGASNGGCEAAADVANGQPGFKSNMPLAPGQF
Procedure: as §1

Adrenergic α2A = Adrenergic α2A (Homo sapiens, UniProt P08913)
Procedure: as §1

Adrenergic α2B = Adrenergic α2B (Homo sapiens, UniProt P18089)
Procedure: as §1

Adrenergic α2C = Adrenergic α2C (Homo sapiens, UniProt P18825)
Adrenergic α2C, sequence (P18825 whole entry): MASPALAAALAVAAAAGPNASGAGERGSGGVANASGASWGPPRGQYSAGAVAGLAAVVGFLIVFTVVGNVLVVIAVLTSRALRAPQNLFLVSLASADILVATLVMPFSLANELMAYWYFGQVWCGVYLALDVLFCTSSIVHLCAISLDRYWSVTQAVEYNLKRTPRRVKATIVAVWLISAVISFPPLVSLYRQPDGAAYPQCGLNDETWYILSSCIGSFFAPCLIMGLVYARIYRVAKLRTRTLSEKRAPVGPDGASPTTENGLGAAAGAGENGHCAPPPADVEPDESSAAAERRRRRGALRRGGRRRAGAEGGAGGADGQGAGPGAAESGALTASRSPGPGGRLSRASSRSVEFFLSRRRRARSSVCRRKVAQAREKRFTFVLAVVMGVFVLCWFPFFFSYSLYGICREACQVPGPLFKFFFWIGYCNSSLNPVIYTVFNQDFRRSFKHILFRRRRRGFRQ
Procedure: as §1

CCR1 = CCR1 (Homo sapiens, UniProt P32246)
Procedure: as §1

CCR2 = CCR2 (Homo sapiens, UniProt P41597)
Procedure: as §1

CCR5 = CCR5 (Homo sapiens, UniProt P51681)
CCR5, sequence (P51681 whole entry): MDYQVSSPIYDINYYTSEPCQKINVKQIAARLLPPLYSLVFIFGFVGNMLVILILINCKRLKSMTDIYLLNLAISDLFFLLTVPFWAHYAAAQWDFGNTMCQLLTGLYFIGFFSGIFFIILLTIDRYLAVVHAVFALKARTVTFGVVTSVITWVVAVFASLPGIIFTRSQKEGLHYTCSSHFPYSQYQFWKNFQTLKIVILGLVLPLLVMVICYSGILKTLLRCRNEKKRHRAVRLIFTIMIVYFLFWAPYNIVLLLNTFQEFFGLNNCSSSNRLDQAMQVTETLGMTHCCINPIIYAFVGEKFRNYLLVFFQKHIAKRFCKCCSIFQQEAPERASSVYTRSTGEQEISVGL
Procedure: as §1

CCR7 = CCR7 (Homo sapiens, UniProt P32248)
Procedure: as §1

CXCR2 = CXCR2 (Homo sapiens, UniProt P25025)
CXCR2, sequence (P25025 whole entry): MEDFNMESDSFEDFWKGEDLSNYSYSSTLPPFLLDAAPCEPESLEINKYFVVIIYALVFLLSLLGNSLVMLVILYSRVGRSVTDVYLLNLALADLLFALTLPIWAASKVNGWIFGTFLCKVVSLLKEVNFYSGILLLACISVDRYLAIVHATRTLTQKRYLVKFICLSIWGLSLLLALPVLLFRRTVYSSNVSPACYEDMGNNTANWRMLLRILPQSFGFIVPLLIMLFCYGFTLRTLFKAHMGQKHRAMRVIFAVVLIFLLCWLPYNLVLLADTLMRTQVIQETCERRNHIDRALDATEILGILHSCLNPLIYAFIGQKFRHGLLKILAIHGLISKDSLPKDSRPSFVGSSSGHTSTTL
Procedure: as §1

Delta opiate = Delta opiate (Homo sapiens, UniProt P41143)
Procedure: as §1

Dopamine D1 = Dopamine D1 (Homo sapiens, UniProt P21728)
Dopamine D1, sequence (P21728 whole entry): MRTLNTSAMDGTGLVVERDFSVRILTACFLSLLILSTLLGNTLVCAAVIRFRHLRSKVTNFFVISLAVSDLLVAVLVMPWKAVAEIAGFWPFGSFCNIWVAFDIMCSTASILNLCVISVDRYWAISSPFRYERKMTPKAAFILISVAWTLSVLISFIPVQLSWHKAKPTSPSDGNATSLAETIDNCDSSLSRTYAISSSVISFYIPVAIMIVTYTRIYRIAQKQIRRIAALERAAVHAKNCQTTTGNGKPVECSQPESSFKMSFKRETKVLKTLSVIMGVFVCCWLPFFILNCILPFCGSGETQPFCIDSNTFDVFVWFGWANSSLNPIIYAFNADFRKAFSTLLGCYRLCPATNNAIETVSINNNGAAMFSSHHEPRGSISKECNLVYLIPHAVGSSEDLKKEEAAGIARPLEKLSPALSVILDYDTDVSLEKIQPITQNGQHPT
Procedure: as §1

Dopamine D2 = Dopamine D2 (Homo sapiens, UniProt P14416)
Dopamine D2, sequence (P14416 whole entry): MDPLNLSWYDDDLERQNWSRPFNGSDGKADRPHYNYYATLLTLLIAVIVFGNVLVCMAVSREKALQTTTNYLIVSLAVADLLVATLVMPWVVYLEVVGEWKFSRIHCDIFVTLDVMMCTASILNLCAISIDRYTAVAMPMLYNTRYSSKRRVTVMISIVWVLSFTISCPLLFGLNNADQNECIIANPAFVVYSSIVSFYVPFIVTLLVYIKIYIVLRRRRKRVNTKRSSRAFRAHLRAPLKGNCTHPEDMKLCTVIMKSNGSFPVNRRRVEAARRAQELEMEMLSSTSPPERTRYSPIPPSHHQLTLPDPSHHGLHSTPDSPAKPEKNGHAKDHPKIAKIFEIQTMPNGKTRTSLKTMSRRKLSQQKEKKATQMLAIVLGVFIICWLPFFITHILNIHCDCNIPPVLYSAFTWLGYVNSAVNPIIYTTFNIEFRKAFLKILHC
Procedure: as §1

Dopamine D3 = Dopamine D3 (Homo sapiens, UniProt P35462)
Procedure: as §1

Dopamine D4.2 = Dopamine D4.2 (Homo sapiens, UniProt P21917, DEL265-296)
Dopamine D4.2, sequence (P21917 with tags, fused parts or gaps DEL265-296): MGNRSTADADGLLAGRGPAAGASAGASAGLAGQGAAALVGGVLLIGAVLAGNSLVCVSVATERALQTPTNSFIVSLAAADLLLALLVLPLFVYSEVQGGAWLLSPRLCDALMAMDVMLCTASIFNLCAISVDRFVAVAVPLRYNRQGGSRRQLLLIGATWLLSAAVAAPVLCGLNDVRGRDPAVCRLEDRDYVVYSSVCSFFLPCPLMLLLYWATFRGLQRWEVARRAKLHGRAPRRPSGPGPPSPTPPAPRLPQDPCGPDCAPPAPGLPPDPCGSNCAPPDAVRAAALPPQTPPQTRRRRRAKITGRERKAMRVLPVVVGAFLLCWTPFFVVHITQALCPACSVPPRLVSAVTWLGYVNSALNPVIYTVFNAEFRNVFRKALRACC
Procedure: as §1

Histamine H3 = Histamine H3 (Homo sapiens, UniProt Q9Y5N1)
Procedure: as §1

MCHR1 = MCHR1 (Homo sapiens, UniProt Q99705)
Procedure: as §1

MRGX1 = MRGX1 (Homo sapiens, UniProt Q96LB2)
Procedure: as §1

MRGX2 = MRGX2 (Homo sapiens, UniProt Q96LB1)
Procedure: as §1

Mu opiate = Mu opiate (Homo sapiens, UniProt P35372)
Procedure: as §1

Muscarinic M2 = Muscarinic M2 (Homo sapiens, UniProt P08172)
Procedure: as §1

Muscarinic M3 = Muscarinic M3 (Homo sapiens, UniProt P20309)
Procedure: as §1

Muscarinic M5 = Muscarinic M5 (Homo sapiens, UniProt P08912)
Procedure: as §1

Neurokinin NK1 = Neurokinin NK1 (Homo sapiens, UniProt P25103)
Procedure: as §1

Neurokinin NK2 = Neurokinin NK2 (Homo sapiens, UniProt P21452)
Procedure: as §1

Neurokinin NK3 = Neurokinin NK3 (Homo sapiens, UniProt P29371)
Neurokinin NK3, sequence (P29371 whole entry): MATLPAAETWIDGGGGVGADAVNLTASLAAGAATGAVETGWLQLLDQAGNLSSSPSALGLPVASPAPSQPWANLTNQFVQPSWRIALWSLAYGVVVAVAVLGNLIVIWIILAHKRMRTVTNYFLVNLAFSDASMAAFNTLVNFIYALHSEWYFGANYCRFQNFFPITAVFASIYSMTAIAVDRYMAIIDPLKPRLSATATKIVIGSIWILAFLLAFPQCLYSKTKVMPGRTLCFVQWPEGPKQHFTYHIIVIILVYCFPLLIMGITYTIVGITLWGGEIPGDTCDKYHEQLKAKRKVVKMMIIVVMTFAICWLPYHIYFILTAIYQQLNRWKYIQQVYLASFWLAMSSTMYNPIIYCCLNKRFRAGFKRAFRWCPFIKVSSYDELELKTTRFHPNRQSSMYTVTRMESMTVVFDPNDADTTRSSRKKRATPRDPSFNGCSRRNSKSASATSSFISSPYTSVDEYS
Procedure: as §1

Neuropeptide Y (Y1) = Neuropeptide Y (Y1) (Homo sapiens, UniProt P25929)
Procedure: as §1

Neuropeptide Y (Y2) = Neuropeptide Y (Y2) (Homo sapiens, UniProt P49146)
Procedure: as §1

Nociceptin NOP1 = Nociceptin NOP1 (Homo sapiens, UniProt P41146)
Procedure: as §1

Prokineticin PKR2 = Prokineticin PKR2 (Homo sapiens, UniProt Q8NFJ6)
Prokineticin PKR2, sequence (Q8NFJ6 whole entry): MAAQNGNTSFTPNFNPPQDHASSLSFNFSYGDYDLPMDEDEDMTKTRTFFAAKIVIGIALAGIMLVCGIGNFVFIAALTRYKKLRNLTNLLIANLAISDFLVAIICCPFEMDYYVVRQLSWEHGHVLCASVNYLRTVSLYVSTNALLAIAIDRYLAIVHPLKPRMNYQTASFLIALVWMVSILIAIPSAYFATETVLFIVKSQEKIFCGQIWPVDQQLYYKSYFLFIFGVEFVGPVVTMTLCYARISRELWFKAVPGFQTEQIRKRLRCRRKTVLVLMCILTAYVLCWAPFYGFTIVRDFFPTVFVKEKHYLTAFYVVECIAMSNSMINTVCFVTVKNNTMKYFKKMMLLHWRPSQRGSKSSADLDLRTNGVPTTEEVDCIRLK
Procedure: as §1

Purinergic P2Y1 = Purinergic P2Y1 (Homo sapiens, UniProt P47900)
Purinergic P2Y1, sequence (P47900 whole entry): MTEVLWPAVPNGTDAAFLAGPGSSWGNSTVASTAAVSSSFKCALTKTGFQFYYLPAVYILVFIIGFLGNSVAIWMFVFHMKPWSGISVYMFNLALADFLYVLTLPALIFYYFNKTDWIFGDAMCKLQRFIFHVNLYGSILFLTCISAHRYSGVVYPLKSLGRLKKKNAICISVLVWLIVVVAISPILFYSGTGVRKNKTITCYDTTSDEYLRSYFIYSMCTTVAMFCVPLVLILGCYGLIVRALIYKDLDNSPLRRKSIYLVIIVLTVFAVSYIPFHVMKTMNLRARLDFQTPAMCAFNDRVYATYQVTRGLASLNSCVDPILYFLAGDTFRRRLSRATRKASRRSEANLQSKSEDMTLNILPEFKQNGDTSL
Procedure: as §1

Purinergic P2Y1_2 = conditions: @ 4 μM
Procedure: as §1

VR1N = conditions: @ 4 μM
Procedure: as §1

Vasopressin (V1a) = Vasopressin (V1a) (Homo sapiens, UniProt P37288)
Vasopressin (V1a), sequence (P37288 whole entry): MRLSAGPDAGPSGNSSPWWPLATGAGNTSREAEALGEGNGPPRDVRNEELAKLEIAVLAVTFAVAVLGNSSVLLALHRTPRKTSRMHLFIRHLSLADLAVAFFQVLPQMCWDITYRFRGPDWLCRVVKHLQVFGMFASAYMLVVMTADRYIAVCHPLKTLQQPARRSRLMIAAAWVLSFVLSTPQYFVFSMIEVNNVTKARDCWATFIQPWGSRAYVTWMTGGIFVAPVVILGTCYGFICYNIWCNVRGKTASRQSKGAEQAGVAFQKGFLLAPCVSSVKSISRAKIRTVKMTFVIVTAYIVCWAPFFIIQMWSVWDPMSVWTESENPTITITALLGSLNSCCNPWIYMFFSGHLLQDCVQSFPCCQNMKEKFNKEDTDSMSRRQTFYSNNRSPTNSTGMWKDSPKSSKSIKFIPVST
Procedure: as §1

Vasopressin (V1b) = Vasopressin (V1b) (Homo sapiens, UniProt P47901)
Procedure: as §1

Vasopressin (V2) = Vasopressin (V2) (Homo sapiens, UniProt P30518)
Procedure: as §1

Vasopressin (oxytocin) = Vasopressin (oxytocin) (Homo sapiens, UniProt P30559)
Procedure: as §1

Adenosine A1, sequence (P30542 whole entry): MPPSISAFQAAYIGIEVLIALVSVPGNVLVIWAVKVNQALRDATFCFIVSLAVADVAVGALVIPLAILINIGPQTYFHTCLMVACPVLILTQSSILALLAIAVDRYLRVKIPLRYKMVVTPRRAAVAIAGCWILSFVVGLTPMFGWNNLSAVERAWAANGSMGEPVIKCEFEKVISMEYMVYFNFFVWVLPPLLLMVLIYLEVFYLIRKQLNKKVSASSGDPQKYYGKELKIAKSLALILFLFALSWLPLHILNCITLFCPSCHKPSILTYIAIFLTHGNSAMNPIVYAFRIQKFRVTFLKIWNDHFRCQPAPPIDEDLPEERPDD

CC[C@H]1CN(c2nc(N)c(C(N)=O)nc2Cl)CCN1C1CCN(Cc2ccc(Cl)cc2)CC1 [SCH 546738]
inhibition at 4 µM (Adenosine A1): 0%
inhibition at 4 µM (Adenosine A2A): 3%
inhibition at 2 µM (Adrenergic α1A): 11%
inhibition at 2 µM (Adrenergic α1B): 25%
inhibition at 1 µM (Adrenergic α2A): 45%
inhibition at 2 µM (Adrenergic α2B): -2%
inhibition at 1 µM (Adrenergic α2C): 76%
inhibition at 10 µM (CCR1): 9%
inhibition at 10 µM (CCR2): 9%
inhibition at 10 µM (CCR5): 10%
inhibition at 10 µM (CCR7): 0%
inhibition at 10 µM (CXCR2): 20%
inhibition at 4 µM (Delta opiate): 12%
inhibition at 4 µM (Dopamine D1): 6%
inhibition at 4 µM (Dopamine D2): 41%
inhibition at 10 µM (Dopamine D3): 18%
inhibition at 10 µM (Dopamine D4.2): 18%
inhibition at 2 µM (Histamine H3): 29%
inhibition at 10 µM (MCHR1): 0%
inhibition at 4 µM (MRGX1): 1%
inhibition at 4 µM (MRGX2): 25%
inhibition at 4 µM (Mu opiate): 22%
inhibition at 4 µM (Muscarinic M2): 52%
inhibition at 4 µM (Muscarinic M3): 27%
inhibition at 4 µM (Muscarinic M5): 28%
inhibition at 2 µM (Neurokinin NK1): 15%
inhibition at 2 µM (Neurokinin NK2): 0%
inhibition at 2 µM (Neurokinin NK3): 0%
inhibition at 4 µM (Neuropeptide Y (Y1)): 4%
inhibition at 4 µM (Neuropeptide Y (Y2)): -9%
inhibition at 4 µM (Nociceptin NOP1): -21%
inhibition at 4 µM (Prokineticin PKR2): -5%
inhibition at 4 µM (Purinergic P2Y1): 16%
Inhibition (%) (Purinergic P2Y1_2): 10% @ 4 μM
Inhibition (%) (VR1N): 0% @ 4 μM
inhibition at 4 µM (Vasopressin (V1a)): 7%
inhibition at 4 µM (Vasopressin (V1b)): 15%
inhibition at 4 µM (Vasopressin (V2)): 18%
inhibition at 4 µM (Vasopressin (oxytocin)): 12%
